From paper PMC6026274, “A GLP-1:CCK fusion peptide harnesses the synergistic effects on metabolism of CCK-1 and GLP-1 receptor agonism in mice” (Appetite, 2018)
Starred links: 1 amine or outer side, 2 acyl side, 3 side chain; linkers in the order of their positions; H or OH if unused. Non-standard residues stand in square brackets, D forms with d. Residues, ends and D or L forms follow the SMILES beside them. Groups on a side chain read outwards from the residue. *: point of attachment. NMeF = CN[C@@H](Cc1ccccc1)C(=O)O; NH(2-Me-phenyl) = Cc1ccccc1N*; Nle = CCCC[C@H](N)C(=O)O; X1 = O=C(Cc1ccc(O)cc1)*; CO = O=C([*:1])[*:2]

Assays:
[1] = system: diet-induced obese (DIO) C57BL6 mice; experiment: Pharmacology study in DIO mice; format: in vivo; details: AC3174 and AC170222 7 nmol/kg each, C2816 and (pGlu-Gln)-CCK-8/exendin-4 50 nmol/kg
Description: Obese male 10-week old C57BL6 mice (Jackson Laboratory) on high-fat diet (D12492, 60% kcal/fat, Research Diets) were single housed upon arrival and allowed to acclimate for 2 weeks. On day −3 mice were weighed and randomized to treatment groups (n = 8/group) based on body weight, with each mouse dosed once daily with two compounds or vehicle administered separately. […] Drug was administered once daily for 10 days intraperitoneally (5 mL/kg) 2 h prior to lights off.

[2] = system: Sprague Dawley rats; experiment: Kaolin intake in lean rats; format: in vivo; details: overnight fasted lean rats, single i.p. injection; C2816 7 or 50 nmol/kg, cisplatin 10 mg/kg; vs vehicle; n = 9/group
Description: After the acclimation period, rats were given chow and kaolin diet (K50001, Research Diets, Billerica, MA) in adjacent separate compartments in a divided food hopper. Rats were randomized to treatment groups based on 24 h chow intake, 24 h kaolin intake and body weight (n = 9/group). […] Cisplatin (10 mg/kg; Sigma-Aldrich, St Louis, MO) was administered i.p. as a positive control. Chow and kaolin intake was recorded at 4 and 24 h. A final body weight was also recorded at 24 h.

[3] = terminal plasma, day 10, once daily i.p., mean ± SEM, n = 8, SEM

SMILES | Body weight change ([1]; DIO mice, once daily i.p. for 10 days, n = 8/group) | Glucose ([1]; terminal non-fasted blood glucose, day 10, once daily i.p., mean ± SEM, n = 8, SEM) [mg/dL] | ALT [1, 3] [U/L] | AST [1, 3] [U/L] | Amylase [1, 3] [U/L] | Cholesterol [1, 3] [mg/dL] | Insulin [1, 3] [ng/mL] | Lipase [1, 3] [U/L] | Triglycerides [1, 3] [mg/dL] | Food (chow) intake at 4 h and 24 h post-dose [2]
CCCC[C@H](NC(=O)Cc1ccc(O)cc1)C(=O)NCC(=O)N[C@@H](Cc1c[nH]c2ccccc12)C(=O)N[C@@H](CCCCNC(=O)Nc1ccccc1C)C(=O)N[C@@H](CC(=O)O)C(=O)N(C)[C@@H](Cc1ccccc1)C(N)=O [AC170222] (X1-[Nle]GWK([CO-NH(2-Me-phenyl)])D[NMeF]-NH2) | did not affect | 280 ± 11 | 86 ± 32 | 95 ± 27 | 2759 ± 75 | 192 ± 28 | 11.3 ± 4.1 | 77 ± 49 | 114 ± 6 | –
N.N.[Cl][Pt][Cl] [cisplatin, Cisplatin] | – | – | – | – | – | – | – | – | – | similarly reduced food intake as high dose C2816
